Patent publication USRE43327E1, “Hydrophobic polyamine analogs and methods for their use” (Aminex Therapeutics, Inc., priority 2001, dated 2012)
Where “and” joins values, the source holds several entries; their conditions need not be identical. Equal entries are not always repeated. Where two headings read alike, the source gives them in different places.

Assays:
Format in all cases: cell-based
[1] = system: PC-3; assay: Growth inhibition assay, PA alone, PC-3; conditions: PA alone (no DFMO), six days, repeat determinations, read-out: Cell Line IC50 PC-3
Procedure: (§1) Medias were obtained from Mediatech, Inc. (Herdon, Va.) and serums from Gibco BRL (Gaithersburg, Md.). 50 U/ml penicillin, 50 μg/ml streptomycin and 2 mM L-glutamine (all from Bio Whittaker, Walkersville, Md.) were included in all cultures. […] When cells were cultured with polyamines or ORI compounds, 1 mM aminoguanidine (AG; Sigma) was included to inhibit serum amine oxidase activity.

[2] = system: SK-OV-3; assay: Growth inhibition assay (MTS/PMS) with DFMO, SK-OV-3; conditions: in the presence of DFMO (1-5 mM), 1 mM AG, 0.5 μM SPD, six days; repeat determinations; read-out: Cell Line EC50 SK-OV-3
Procedure: as §1

[3] = system: A375; assay: Growth inhibition assay, PA alone, A375; conditions: PA alone (no DFMO), six days, repeat determinations, read-out: Cell Line IC50 A375
Procedure: as §1

[4] = system: A375; assay: Growth inhibition assay (MTS/PMS) with DFMO, A375; conditions: in the presence of DFMO (1-5 mM), 1 mM AG, 0.5 μM SPD, six days; repeat determinations; read-out: Cell Line EC50 A375
Procedure: as §1

[5] = system: SK-OV-3; assay: Growth inhibition assay, PA alone, SK-OV-3; conditions: PA alone (no DFMO), six days, repeat determinations, read-out: Cell Line IC50 SK-OV-3
Procedure: as §1

[6] = system: PC-3; assay: Growth inhibition assay (MTS/PMS) with DFMO, PC-3; conditions: in the presence of DFMO (1-5 mM), 1 mM AG, 0.5 μM SPD, six days; repeat determinations; read-out: Cell Line EC50 PC-3
Procedure: as §1

[7] = system: MDA-MB-231; assay: Growth inhibition assay, PA alone, MDA-MB-231; conditions: PA alone (no DFMO), six days, repeat determinations, read-out: Cell Line IC50 MDA-MB-231
Procedure: as §1

[8] = system: MDA-MB-231; assay: Growth inhibition assay (MTS/PMS) with DFMO, MDA-MB-231; conditions: in the presence of DFMO (1-5 mM), 1 mM AG, 0.5 μM SPD, six days; repeat determinations; read-out: Cell Line EC50 MDA-MB-231
Procedure: as §1

[9] = system: 4 cell lines (A375, MDA-MB-231, PC-3, SK-OV-3); assay: Growth inhibition with DFMO, average over 4 cell lines; conditions: with DFMO
Procedure: Cells were plated in 96-well plates such that they would be in log growth for the duration of the assay. The day after plating, PAs were added to the cells, and growth, if any, permitted to continue for six days in the presence of 1 mM AG and 0.5 μM SPD to insure that any growth inhibition was not the result of depletion of external polyamines in the media. At the end of the six days, cell growth was measured by MTS/PMS dye assay (Cell Titer 96 Aqueous Non-Radioactive Cell Proliferation Assay; Promega, Madison, Wis.).

[10] = Table 3, average over cell lines, read-out: AVG. EC50
[11] = Homo sapiens, MDA-MB-231, 144 h
[12] = Table 2, average EC50 for 4 cell lines, read-out: Ave EC50 value

Row | SMILES | IC50 [1] | EC50 [2] | IC50 [3] | EC50 [4] | IC50 [5] | EC50 [6] | IC50 [7] | EC50 [8] | EC50 [9, 10] | IC50 [7, 11] | IC50 ([1]; Homo sapiens, PC-3, 144 h) | IC50 ([3]; Homo sapiens, A-375, 144 h) | IC50 ([5]; Homo sapiens, SK-OV-3, 144 h) | EC50 [9, 12]
1 | Cc1cc(C)c(S(=O)(=O)NCCCC[C@@H](N)C(=O)NCCCNCCCCNCCCN)c(C)c1 [IIB17] | > 30 µM | 26.2 µM | > 30 µM | 1.52 µM | > 30 µM | 0.919 µM |  |  |  |  |  |  |  | 
2 | CCCCCCCCCCCCCCCCS(=O)(=O)NCCCC[C@H](NS(=O)(=O)CCCCCCCCCCCCCCCC)C(=O)NCCCNCCCCNCCCN [IIE10] | 14.3 µM | 0.272 µM |  |  | 20.1 µM | 0.152 µM | 24.5 µM | 0.392 µM |  |  |  |  |  | 
3 | CCCC/C=C\CCCCCCCCCCNCCCC[C@H](N)C(=O)NCCCNCCCCNCCCN [IVA18] | > 3 µM | 0.14 µM |  | 0.05 µM and 0.061 µM | > 3 µM | 0.075 µM |  |  | 0.079 µM |  |  |  |  | 
4 | NCCCNCCCCNCCCNC(=O)[C@@H](N)CCCCNCC1CCCCC1 [IVA27] | > 100 µM |  | > 100 µM |  | > 100 µM |  | > 100 µM |  | 4.69 µM |  |  |  |  | 
5 | CC(C)(C)CNCCCC[C@H](N)C(=O)NCCCNCCCCNCCCN [VA22] |  |  | 83.5 µM |  |  |  |  |  | 6.98 µM | > 100 µM | > 100 µM | > 100 µM | > 100 µM | 2.42 µM
6 | CCCC(CCC)NCCCC[C@H](N)C(=O)NCCCNCCCCNCCCN [VA26] |  |  |  |  |  |  |  |  | 3.91 µM | > 100 µM | > 100 µM | > 100 µM | > 100 µM | 
7 | NCCCNCCCCNCCCNC(=O)[C@@H](N)CCCCNCC12CC3CC(CC(C3)C1)C2 [VA27] |  |  |  |  |  |  |  |  | 6.45 µM | > 100 µM | > 100 µM | > 100 µM | > 100 µM | 26.8 µM
8 | CC(C)[C@@H]1CC[C@@H](C)CC1NCCCC[C@@H](N)C(=O)NCCCNCCCCNCCCN (some centres unmarked) [VB28] |  |  | 64.5 µM |  |  |  |  |  | 0.905 µM | > 100 µM | > 100 µM | > 100 µM | > 100 µM | 

Next, values leading:

Row | IC50 [1] | EC50 [2] | IC50 [3] | EC50 [4] | IC50 [5] | EC50 [6] | IC50 [7] | EC50 [8] | EC50 [9, 10] | IC50 [7, 11] | IC50 ([1]; Homo sapiens, PC-3, 144 h) | IC50 ([3]; Homo sapiens, A-375, 144 h) | IC50 ([5]; Homo sapiens, SK-OV-3, 144 h) | EC50 [9, 12] | SMILES
9 |  |  | > 30 µM | 0.084 µM |  |  | > 30 µM | 0.207 µM |  |  |  |  |  |  | CCCCC/C=C\C/C=C\CCCCCCCC(=O)NCCCC[C@H](N)C(=O)NCCCNCCCCNCCCN [IIIA5]
10 |  |  |  |  |  |  |  |  | 2.2 µM | > 100 µM | > 100 µM | > 100 µM | > 100 µM |  | CCCCNCCCC[C@@H](N)C(=O)NCCCNCCCCNCCCN [IVB3]
11 |  |  |  |  |  |  |  |  | 0.868 µM | > 100 µM | > 100 µM | > 100 µM | > 100 µM |  | CCCCCCNCCCC[C@@H](N)C(=O)NCCCNCCCCNCCCN [IVB5]
12 |  |  |  |  |  |  |  |  | 0.365 µM | > 100 µM | > 100 µM | > 100 µM | > 100 µM |  | CCCCCCCNCCCC[C@@H](N)C(=O)NCCCNCCCCNCCCN [IVB6]
13 |  |  | 71 µM |  |  |  |  |  | 1.52 µM | > 100 µM | > 100 µM | > 100 µM | > 100 µM |  | CC(C)CCNCCCC[C@@H](N)C(=O)NCCCNCCCCNCCCN [IVB21]
14 |  |  |  |  |  |  |  |  | 1.33 µM | > 100 µM | > 100 µM | > 100 µM | > 100 µM |  | CC(C)(C)CCNCCCC[C@@H](N)C(=O)NCCCNCCCCNCCCN [IVB22]
15 |  |  |  |  |  |  |  |  | 1.79 µM | > 100 µM | > 100 µM | > 100 µM | > 100 µM |  | CC(C)CNCCCC[C@@H](N)C(=O)NCCCNCCCCNCCCN [IVB23]
16 |  |  |  |  |  |  |  |  | 10.7 µM | 18.9 µM | 17.8 µM | 5.6 µM | 19.8 µM |  | CC(C)=CCC[C@H](C)CCNCCCC[C@@H](N)C(=O)NCCCNCCCCNCCCN [IVB28]
17 |  |  |  |  |  | 1.7 µM |  | 4.2 µM |  |  |  |  |  |  | NCCCNCCCCNCCCNC(=O)[C@H](CCCCNCc1ccccc1)NCc1ccccc1 [IVE30]
